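A five-concentration, 48-hour dose response in 96-well plates underlies each endpoint, interpolated linearly between surrounding concentrations. Here, GI50 denotes the concentration required for 50% inhibition of growth.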 Active and inactive are the calls of the source. Rule as the data show it: active = GI50 up to about 1.1 µM and inactive = higher. Bounds are passed on as bounds.

Common to all, as to assay: NCI tumour cell line growth inhibition, 48 h
For assay [1], the system named is 786-0.
Assay [2] concerns DU-145.
In assay [3] the test system is HCC 2998.
The test system of assay [4] is HL-60.
In assay [5] the test system is HT-29.
Assay [6] deals with Hs-578T.
For assay [7], the system named is LOX IMVI.
Assay [8] relates to MDA-MB-435.
The test system of assay [9] is Malme-3M.
For assay [10], the system named is NCI-H460.
Assay [11] concerns OVCAR-3.
Assay [12] deals with OVCAR-5.
Assay [13] relates to SK-MEL-5.
Assay [14] relates to SNB-19.
Assay [15] concerns SNB-75.
For assay [16], the system named is TK-10.
For assay [17], the system named is NCI-H226.
Assay [18] relates to SF-268.
In assay [19] the test system is SF-539.

`CN(CCc1ccccn1)C(=S)N/N=C(\c1ccccc1)c1ccccn1`: the GI50 in assay [1] is 0.0419 µM (active); in [2] it was 1.41 µM (inactive); in [3], 1.52 µM (inactive); in [4], < 0.01 µM (active); in [5] it was < 0.01 µM (active); in assay [6] it was 1.91 µM (inactive). The GI50 in assay [7] is < 0.01 µM (active); in assay [8], 0.573 µM (active); in assay [9], < 0.01 µM (active); in assay [10], < 0.01 µM (active); in [11], < 0.01 µM (active); in assay [12], 1.05 µM (active). For the same compound, the GI50 in assay [13] is 0.0986 µM (active); in assay [14], 0.215 µM (active); in assay [15], 1.3 µM (inactive); in assay [16], 0.524 µM (active).
Regarding `O=C1c2ccccc2-c2c1c(-c1cccc(Br)c1)nc1ccc3ccccc3c21`, the GI50 in [1] was > 100 µM (inactive); in assay [2], > 100 µM (inactive); in [3] it was > 100 µM (inactive); in assay [5] it was > 100 µM (inactive); in assay [6], 46.9 µM (inactive); in assay [7], > 100 µM (inactive). The GI50 in assay [8], in assay [9], in [17], in assay [10], in [11] and in [12] was > 100 µM (inactive) each time. The GI50 in assay [18], in [19], in assay [14] and in assay [15] was > 100 µM (inactive) each time.
`N#Cc1ccc(OC(=O)c2ccc(NC(=N)N)cc2)cc1.c1ccncc1`: the GI50 was 66.1 µM (inactive) in assay [1]; > 100 µM (inactive) in [2]; 60.1 µM (inactive) in assay [4]; 53.7 µM (inactive) in assay [5]; > 100 µM (inactive) in [6]; 80.7 µM (inactive) in assay [7]. The GI50 in assay [8] is 67.8 µM (inactive); in [9] it was > 100 µM (inactive); in assay [17], 50 µM (inactive); in assay [10], > 100 µM (inactive); in [11] it was 30.1 µM (inactive); in assay [12] it was > 100 µM (inactive). Also, the GI50 is 51.1 µM (inactive) in [18]; 73.6 µM (inactive) in assay [19]; > 100 µM (inactive) in [13]; 56.2 µM (inactive) in [14]; 43.9 µM (inactive) in assay [15]; > 100 µM (inactive) in assay [16].
For `[O-][S+](c1ccc(Cl)cc1)c1ccccc1C1=NCCN1` (stereo unspecified), the GI50 in assay [1], in assay [2], in assay [3], in assay [4], in assay [5] and in assay [6] was > 100 µM (inactive) throughout. Further, the GI50 in [8], in assay [9], in assay [17], in assay [10], in [11] and in assay [12] was > 100 µM (inactive) throughout. In addition, the GI50 in [18], in assay [13], in assay [14], in assay [15] and in assay [16] was > 100 µM (inactive) in each case.
On to `O=C1CC(=O)NC(NN2C(=O)/C(=C/C(=O)c3ccco3)N=C2c2ccccc2)=N1`, for which the GI50 in [1] was > 100 µM (inactive); in [2] it was > 100 µM (inactive); in [3], > 100 µM (inactive); in [5] it was > 100 µM (inactive); in assay [6], 27.7 µM (inactive); in assay [8] it was 63.7 µM (inactive). For the same compound, the GI50 in assay [9] is 7 µM (inactive); in assay [17], > 100 µM (inactive); in [10], 30.3 µM (inactive); in [11] it was 42.4 µM (inactive); in [12], > 100 µM (inactive); in [18], > 100 µM (inactive). The figures for the GI50 in [19], in assay [15] and in [16] were 44.1 µM (inactive), 22.2 µM (inactive) and > 100 µM (inactive), respectively.
For the compound `COc1cc2c(cc1OC(=O)c1cc3ccccc3[nH]1)N=C[C@@H]1CCCN1C2=O`, the GI50 in [1] was 0.261 µM (active); in assay [2] it was 0.425 µM (active); in assay [3] it was 0.269 µM (active); in assay [5] it was 0.185 µM (active); in assay [6], 1.3 µM (inactive); in assay [7], 0.332 µM (active). Moreover, the GI50 in assay [8] is 0.316 µM (active); in assay [9], 0.398 µM (active); in assay [17], 0.809 µM (active); in [10] it was 0.344 µM (active); in assay [11], 0.296 µM (active); in assay [12] it was 0.255 µM (active). Also, the GI50 was 0.706 µM (active) in [18]; 0.281 µM (active) in assay [19]; 0.175 µM (active) in [13]; 0.352 µM (active) in assay [14]; 1.41 µM (inactive) in assay [15]; 0.355 µM (active) in [16].
As for `Cc1cn(CCCCCCC2=NCCCN2)c(=O)[nH]c1=O`, the GI50 in assay [1], in [2], in assay [3], in assay [5], in assay [6] and in assay [7] was > 100 µM (inactive) in each case. Moreover, the GI50 in assay [8], in assay [9], in assay [17], in assay [10], in [11] and in [12] was > 100 µM (inactive) throughout. The GI50 in assay [18], in assay [19], in [13], in assay [14], in assay [15] and in assay [16] was > 100 µM (inactive) in each case.
For the compound `COC(=O)C1(C(=O)OC)C/C(C)=C(/C)SCCCS1`, the GI50 in assay [1], in assay [2], in [3], in [5], in assay [6] and in assay [7] was > 100 µM (inactive) throughout. For the same compound, the GI50 was > 100 µM (inactive) in assay [8]; > 100 µM (inactive) in assay [9]; 79.1 µM (inactive) in [17]; > 100 µM (inactive) in [10]; 92.7 µM (inactive) in [11]; > 100 µM (inactive) in [12]. The GI50 is > 100 µM (inactive) in assay [18]; > 100 µM (inactive) in assay [19]; > 100 µM (inactive) in assay [13]; > 100 µM (inactive) in assay [14]; 28.4 µM (inactive) in assay [15]; > 100 µM (inactive) in assay [16].
As for `CCOC(=O)c1ccc(C(=O)C(C(C)=O)C(=O)OC(C)(C)C)n1C` (stereo unspecified), the GI50 in assay [1] is > 100 µM (inactive); in assay [2] it was > 100 µM (inactive); in [3], > 100 µM (inactive); in assay [4], 67.9 µM (inactive); in assay [5] it was > 100 µM (inactive); in assay [6] it was > 100 µM (inactive). Also, the GI50 in [7], in [8], in [9], in assay [17], in assay [10] and in assay [11] was > 100 µM (inactive) in each case. Besides, the GI50 in [12] is > 100 µM (inactive); in assay [18], > 100 µM (inactive); in [13], > 100 µM (inactive); in assay [14] it was > 100 µM (inactive); in assay [15], 78.5 µM (inactive); in [16], > 100 µM (inactive).
For the compound `O=C1N[C@@H]2c3c(csc3Br)C(=O)[C@@H]2O1`, the GI50 was 33.2 µM (inactive) in assay [1]; 39.1 µM (inactive) in [2]; 17.9 µM (inactive) in assay [3]; 24.3 µM (inactive) in assay [4]; 38.5 µM (inactive) in assay [5]; 31 µM (inactive) in assay [6]. Further, the GI50 in [7] was 19 µM (inactive); in assay [8] it was 19.9 µM (inactive); in [9] it was 32 µM (inactive); in [10], 43.4 µM (inactive); in assay [11], 20.7 µM (inactive); in assay [12], 74 µM (inactive). Also, the GI50 is 27 µM (inactive) in assay [18]; 33.5 µM (inactive) in assay [19]; > 100 µM (inactive) in [13]; 94 µM (inactive) in assay [14]; 48.4 µM (inactive) in assay [15]; 27.4 µM (inactive) in [16].
`CCN1CCN(c2ccc(Nc3ccnc4ccc5c(nnn5C)c34)cc2)CC1`: the GI50 in assay [1] is 3.86 µM (inactive); in assay [2], 5.25 µM (inactive); in [3] it was 1.58 µM (inactive); in [4], 4.94 µM (inactive); in assay [5], 3.72 µM (inactive); in assay [6], 13.1 µM (inactive). Further, the GI50 in assay [7] is 3.14 µM (inactive); in assay [8] it was 5.46 µM (inactive); in [9], 5.89 µM (inactive); in [10], 2.97 µM (inactive); in assay [11] it was 5.56 µM (inactive); in assay [12], 9.16 µM (inactive). Moreover, the GI50 in [18] is 6.46 µM (inactive); in [19], 2.98 µM (inactive); in assay [13] it was 11 µM (inactive); in [14], 3.15 µM (inactive); in assay [15] it was 13.9 µM (inactive); in assay [16], 15.3 µM (inactive).
As to `COc1ccc(-[n+]2nc(S(=O)(=O)O)c(/C=C/c3ccc(N(C)C)cc3)cc2C#N)cc1`, the GI50 in assay [1], in [2], in [3], in [5], in [6] and in [7] was > 100 µM (inactive) throughout. The GI50 in assay [8], in [17], in assay [11], in assay [12], in assay [18] and in [19] was > 100 µM (inactive) throughout. In addition, the GI50 in [13], in assay [14], in assay [15] and in [16] was > 100 µM (inactive) each time.

For the origin of these results see ChEMBL document CHEMBL1201862, “PubChem BioAssay data set” (2004).
